According to patent US20250195513A1, “DEGRADATION OF IRAK4 BY CONJUGATION OF IRAK4 INHIBITORS WITH E3 LIGASE LIGAND AND METHODS OF USE” (BeiGene, Ltd., priority 2022, published 2025):
Read-outs that look alike come from different tables or passages of the source.

Biological target: T1, IRAK4 (Homo sapiens, UniProt Q9NWZ3)
T1 construct: endogenous in cells; host or cells: Karpas299
T1 sequence (Q9NWZ3 1-460): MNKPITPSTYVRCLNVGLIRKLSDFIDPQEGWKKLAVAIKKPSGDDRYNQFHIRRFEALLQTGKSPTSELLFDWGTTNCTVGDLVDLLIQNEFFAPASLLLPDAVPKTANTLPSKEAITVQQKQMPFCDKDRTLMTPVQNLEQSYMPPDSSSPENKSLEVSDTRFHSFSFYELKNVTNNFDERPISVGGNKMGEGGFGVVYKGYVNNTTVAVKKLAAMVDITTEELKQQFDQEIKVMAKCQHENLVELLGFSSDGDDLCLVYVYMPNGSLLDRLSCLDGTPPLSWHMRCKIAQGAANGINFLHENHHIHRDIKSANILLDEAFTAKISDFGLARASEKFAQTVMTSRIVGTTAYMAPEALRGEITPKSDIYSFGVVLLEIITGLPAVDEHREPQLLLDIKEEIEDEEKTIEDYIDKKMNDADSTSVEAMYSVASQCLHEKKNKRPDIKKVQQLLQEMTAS
Test: IRAK4 Degradation Assay (Karpas299, HTRF/TR-FRET)
Assay type: cell-based
Method: IRAK4 degradation was measured using a TR-FRET-based method (Degorce, François, et al. Current chemical genomics. 2009, 3: 22). Karpas299 maintained in RPMI 1640 medium (Thermo Scientific) supplemented with 20% fetal bovine serum (FBS, Thermo Scientific), 100 units/mL penicillin and 0.1 mg/mL streptomycin (Thermo Scientific) were seeded into 96-well plates at the density of 0.2 million cells per well and then treated with a series dilution of compounds. After 24 hours or 5 hours treatment, cells were pelleted via centrifugation and 40 μL lysis buffer (Cisbio) was added to each well after removal of the supernatant. Plates were then incubated at room temperature with shaking for 30 minutes. A total of 16 μL of cell lysates from each well of a 96-well plate was transferred to a 384-well white assay plate. IRAK4 level was quantitated using the HTRF kit as described by the manufacturer manual (Cisbio). FRET signals were measured using a PHERAstar FSX reader (BMG Labtech).
After treatment, add HTRF lysis buffer to each well; seal the plate and incubate 1 hour at room temperature on a plate shaker; Once the cells are lysed, 16 μL of cell lysate are transferred to a PE 384-well HTRF detection plate; 4 μL of pre-mixed HTRF antibodies are added to each well; Cover the plate with a plate sealer, spin 1000 rpm for 1 min, Incubate overnight at room temperature; Read on BMG PheraStar with HTRF protocol (337 nm-665 nm-620 nm).
The inhibition (degradation) percentage of the compound was calculated by the following equation: […]
The IC50 (DC50) value of a compound can be obtained by fitting the following equation
Wherein, X and Y are known values, and IC50, Hillslope, Top and Bottom are the parameters obtained by fitting with software. Y is the inhibition percentage (calculated from the equation), X is the concentration of the compound; IC50 is the concentration of the compound when the […] is reached. The smaller the IC50 value is, the stronger the inhibitory ability of the compound is. Vice versa, the higher the IC50 value is, the weaker the ability the inhibitory ability of the compound is; Hillslope represents the slope of the fitted curve, generally around 1 *; Bottom represents the minimum value of the curve obtained by data fitting, which is generally 0%±20%; Top represents the maximum value of the curve obtained by data fitting, which is generally 100%±20%. The experimental data were fitted by calculating and analyzing with Dotmatics data analysis software.

[1] = Karpas-299 cells, 24 h treatment, maximum percentage of degradation, read-out: IRAK4 in Karpas-299 (24 h) Dmax (%)
[2] = Karpas-299 cells, 24 h treatment, read-out: IRAK4 in Karpas-299 (24 h) DC50
[3] = Karpas-299 cells, 5 h treatment, maximum percentage of degradation, read-out: IRAK4 in Karpas-299 (5 h) Dmax (%)
[4] = Karpas-299 cells, 5 h treatment, read-out: IRAK4 in Karpas-299 (5 h) DC50

SMILES	Dmax [1] [%]	DC50 [2] [nM]	DC50 (Degradation (Karpas-299), comparison table, Linker Type B, read-out: Compound (Linker Type B) DC50) [nM]	Dmax (Degradation (Karpas-299), comparison table, Linker Type B, read-out: Compound (Linker Type B) Dmax (%)) [%]	Dmax [3] [%]	DC50 [4] [nM]
O=C1CCN(c2ccc(N3CC[C@H](C(=O)N4CCN([C@H]5CC[C@H](n6cc(NC(=O)c7coc(-c8ccnc(NCC(F)(F)F)c8)n7)c(C(F)F)n6)CC5)CC4)C3)cc2)C(=O)N1 [Example 15, N-(3-(difluoromethyl)-1-((1S,4r)-4-(4-((S)-1-(4-(2,4-dioxotetrahydropyrimidin-1(2H)-yl)phenyl)pyrrolidine-3-carbonyl)piperazin-1-yl)cyclohexyl)-1H-pyrazol-4-yl)-2-(2-((2,2,2-trifluoroethyl)amino)pyridin-4-yl)oxazole-4-carboxamide]	30	> 10000				
CC1(C)CN(c2cc(F)c([C@H]3CCC(=O)NC3=O)c(F)c2)C[C@@H]1C(=O)N1CCN([C@H]2CC[C@H](n3cc(NC(=O)c4coc(-c5ccnc(NCC(F)(F)F)c5)n4)c(C(F)F)n3)CC2)CC1 [Example 18, N-(3-(difluoromethyl)-1-((1R,4r)-4-(4-((R)-1-(4-((R)-2,6-dioxopiperidin-3-yl)-3,5-difluorophenyl)-4,4-dimethylpyrrolidine-3-carbonyl)piperazin-1-yl)cyclohexyl)-1H-pyrazol-4-yl)-2-(2-((2,2,2-trifluoroethyl)amino)pyridin-4-yl)oxazole-4-carboxamide]	97	9.7			95	100
O=C1CC[C@H](c2c(F)cc(N3CCC(CN4CCN([C@H]5CC[C@H](n6cc(NC(=O)c7coc(-c8ccnc(NCC(F)(F)F)c8)n7)c(C(F)F)n6)CC5)CC4)CC3)cc2F)C(=O)N1 [Example 20, N-(3-(difluoromethyl)-1-((1r,4r)-4-(4-((1-(4-((R)-2,6-dioxopiperidin-3-yl)-3,5-difluorophenyl)piperidin-4-yl)methyl)piperazin-1-yl)cyclohexyl)-1H-pyrazol-4-yl)-2-(2-((2,2,2-trifluoroethyl)amino)pyridin-4-yl)oxazole-4-carboxamide]	97	4.8				
O=C1CCN(c2ccc(N3CC[C@H](C(=O)N4CCN([C@H]5CC[C@H](n6cc(NC(=O)c7coc(-c8ccnc(NCC9CC9)c8)n7)c(C(F)F)n6)CC5)CC4)C3)cc2)C(=O)N1 [Example 22, 2-(2-((cyclopropylmethyl)amino)pyridin-4-yl)-N-(3-(difluoromethyl)-1-((1S,4r)-4-(4-((S)-1-(4-(2,4-dioxotetrahydropyrimidin-1(2H)-yl)phenyl)pyrrolidine-3-carbonyl)piperazin-1-yl)cyclohexyl)-1H-pyrazol-4-yl)oxazole-4-carboxamide]	90	6.8				
O=C1CCN(c2ccc(N3CC[C@@H](C(=O)N4CCN([C@H]5CC[C@H](n6cc(NC(=O)c7coc(-c8ccnc(NCC9CC9)c8)n7)c(C(F)F)n6)CC5)CC4)C3)cc2)C(=O)N1 [Example 23, 2-(2-((cyclopropylmethyl)amino)pyridin-4-yl)-N-(3-(difluoromethyl)-1-((1R,4r)-4-(4-((R)-1-(4-(2,4-dioxotetrahydropyrimidin-1(2H)-yl)phenyl)pyrrolidine-3-carbonyl)piperazin-1-yl)cyclohexyl)-1H-pyrazol-4-yl)oxazole-4-carboxamide]	95	6				

The next molecules have a lower DC50 [2] than those just listed; values first:

Dmax [1] [%]	DC50 [2] [nM]	DC50 (Degradation (Karpas-299), comparison table, Linker Type B, read-out: Compound (Linker Type B) DC50) [nM]	Dmax (Degradation (Karpas-299), comparison table, Linker Type B, read-out: Compound (Linker Type B) Dmax (%)) [%]	Dmax [3] [%]	DC50 [4] [nM]	SMILES
98	4.4					O=C1CCN(c2ccc(N3CCC(N4CCN([C@H]5CC[C@H](n6cc(NC(=O)c7coc(-c8ccnc(NCC(F)(F)F)c8)n7)c(C(F)F)n6)CC5)CC4)C3)cc2)C(=O)N1 (stereo partly drawn) [Example 21, N-(3-(difluoromethyl)-1-((1r,4r)-4-(4-(1-(4-(2,4-dioxotetrahydropyrimidin-1(2H)-yl)phenyl)pyrrolidin-3-yl)piperazin-1-yl)cyclohexyl)-1H-pyrazol-4-yl)-2-(2-((2,2,2-trifluoroethyl)amino)pyridin-4-yl)oxazole-4-carboxamide]
70	3.4					O=C1CCN(c2ccc(N3CC[C@@H](C(=O)N4CCN([C@H]5CC[C@H](n6cc(NC(=O)c7coc(-c8ccnc(NCC(F)(F)F)c8)n7)c(C(F)F)n6)CC5)CC4)C3)cc2)C(=O)N1 [Example 14, N-(3-(difluoromethyl)-1-((1R,4r)-4-(4-((R)-1-(4-(2,4-dioxotetrahydropyrimidin-1(2H)-yl)phenyl)pyrrolidine-3-carbonyl)piperazin-1-yl)cyclohexyl)-1H-pyrazol-4-yl)-2-(2-((2,2,2-trifluoroethyl)amino)pyridin-4-yl)oxazole-4-carboxamide]
98	2.8					O=C1CCN(c2ccc(N3CC(C(=O)N4CCN([C@H]5CC[C@H](n6cc(NC(=O)c7coc(-c8ccnc(NCC9CC9)c8)n7)c(C(F)F)n6)CC5)CC4)C3)cc2)C(=O)N1 [Example 24, 2-(2-((cyclopropylmethyl)amino)pyridin-4-yl)-N-(3-(difluoromethyl)-1-((1r,4r)-4-(4-(1-(4-(2,4-dioxotetrahydropyrimidin-1(2H)-yl)phenyl)azetidine-3-carbonyl)piperazin-1-yl)cyclohexyl)-1H-pyrazol-4-yl)oxazole-4-carboxamide]
99	2.5					O=C1CC[C@H](c2c(F)cc(N3CC(C(=O)N4CCN([C@H]5CC[C@H](n6cc(NC(=O)c7coc(-c8ccnc(NCC9CC9)c8)n7)c(C(F)F)n6)CC5)CC4)C3)cc2F)C(=O)N1 [Example 25, 2-(2-((cyclopropylmethyl)amino)pyridin-4-yl)-N-(3-(difluoromethyl)-1-((1r,4r)-4-(4-(1-(4-((R)-2,6-dioxopiperidin-3-yl)-3,5-difluorophenyl)azetidine-3-carbonyl)piperazin-1-yl)cyclohexyl)-1H-pyrazol-4-yl)oxazole-4-carboxamide]
99	2.2					O=C1CC[C@H](c2c(F)cc(N3CC[C@@H](C(=O)N4CCN([C@H]5CC[C@H](n6cc(NC(=O)c7coc(-c8ccnc(NCC9CC9)c8)n7)c(C(F)F)n6)CC5)CC4)C3)cc2F)C(=O)N1 [Example 26, 2-(2-((cyclopropylmethyl)amino)pyridin-4-yl)-N-(3-(difluoromethyl)-1-((1R,4r)-4-(4-((R)-1-(4-((R)-2,6-dioxopiperidin-3-yl)-3,5-difluorophenyl)pyrrolidine-3-carbonyl)piperazin-1-yl)cyclohexyl)-1H-pyrazol-4-yl)oxazole-4-carboxamide]
95	1					O=C1CC[C@H](c2c(F)cc(N3CC(CN4CCN([C@H]5CC[C@H](n6cc(NC(=O)c7coc(-c8ccnc(NCC(F)(F)F)c8)n7)c(C(F)F)n6)CC5)CC4)C3)cc2F)C(=O)N1 [Example 19, N-(3-(difluoromethyl)-1-((1r,4r)-4-(4-((1-(4-((R)-2,6-dioxopiperidin-3-yl)-3,5-difluorophenyl)azetidin-3-yl)methyl)piperazin-1-yl)cyclohexyl)-1H-pyrazol-4-yl)-2-(2-((2,2,2-trifluoroethyl)amino)pyridin-4-yl)oxazole-4-carboxamide]
98	0.67	0.67	98	96	5.7	O=C1CC[C@H](c2c(F)cc(N3CC(C(=O)N4CCN([C@H]5CC[C@H](n6cc(NC(=O)c7coc(-c8ccnc(NCC(F)(F)F)c8)n7)c(C(F)F)n6)CC5)CC4)C3)cc2F)C(=O)N1 [Example 16, N-(3-(difluoromethyl)-1-((1r,4r)-4-(4-(1-(4-((R)-2,6-dioxopiperidin-3-yl)-3,5-difluorophenyl)azetidine-3-carbonyl)piperazin-1-yl)cyclohexyl)-1H-pyrazol-4-yl)-2-(2-((2,2,2-trifluoroethyl)amino)pyridin-4-yl)oxazole-4-carboxamide]
